Laboratory results: ChEMBL document CHEMBL3880395, “Novel compounds and methods of use thereof” (2003)
pIC50: −log10 of the molar value. Activity calls are given as the source filed them. The rule behind the calls is not given here.

Experiments:
Rattus norvegicus [1] = species: Rattus norvegicus; test: Antiangiogenic activity in Sprague-Dawley rat thoracic aortic rings assessed as inhibition of capillary like tube formation at 0.3 ug/ml for 5 days by MTT/MTS assay; format: functional; conditions: Thoracic aorta
[2] = Anticancer activity against mouse P388 cells implanted in DBA/2J mouse assessed as increase in life span at 200 mg/kg, po administered daily for 4 days measured twice daily during compound dosing; format: functional; conditions: 96 h
[3] = Toxicity in DBA/2J mouse implanted with mouse P388 cells assessed as body weight loss at 5 to 400 mg/kg, po administered daily for 4 days measured twice daily during compound dosing; format: organism-based; conditions: in vivo, 96 h
P388 = test: Anticancer activity against mouse P388 cells implanted in po dosed DBA/2J mouse assessed as increase in life span administered daily for 4 days measured twice daily during compound dosing; format: functional, organism-based
[4] = Cytotoxicity against human HONE1 cells assessed as reduction in cell growth after 72 hrs by MTS assay; format: functional, cell-based; conditions: HONE1, 72 h
[5] = Toxicity in athymic nude mouse xenografted in human SW480 cells xenografted assessed as body weight loss at 200 mg/kg, administered via oral gavage daily for 6 weeks measured twice per every week for 70 days; format: organism-based; conditions: in vivo, 1680 h
Rattus norvegicus [6] = species: Rattus norvegicus; test: Antiangiogenic activity in Sprague-Dawley rat thoracic aortic rings assessed as inhibition of capillary like tube formation at 1 ug/ml for 5 days by MTT/MTS assay; format: functional; conditions: Thoracic aorta
[7] = Toxicity in DBA/2J mouse implanted with mouse P388 cells assessed as body weight loss at 25 to 400 mg/kg, po administered daily for 4 days measured twice daily during compound dosing; format: organism-based; conditions: in vivo, 96 h

Question: With `O=C(Nc1ccc2ncccc2c1)C(=O)c1cn(Cc2ccco2)c2ccccc12` as the compound, how does the inhibition (Rattus norvegicus [1]) read?
Answer: The inhibition was “Active”.

Question: Which inhibition (Rattus norvegicus [1]) does the source give for `Cc1cc(NC(=O)C(=O)c2cn(Cc3cc(C(C)C)no3)c3ccccc23)sn1` here?
Answer: Its inhibition is “Active”.

Question: What does the source list for `Cc1cc(Cn2cc(C(=O)C(=O)Nc3cc(C)ns3)c3ccccc32)on1`?
Answer: ILS at 200 mg/kg [2]: 100%; inhibition (Rattus norvegicus [1]): Active; Activity [3]: Non-Toxic; ILS (P388): Dose-dependent effect; pIC50 [4]: 8.40 to 8.52; Activity [5]: Non-Toxic

Question: Which inhibition (Rattus norvegicus [1]) does the source give for `Cc1cc(NC(=O)C(=O)c2cn(Cc3ccsc3)c3ccccc23)sn1` here?
Answer: Its inhibition is “Active”.

Question: Which inhibition (Rattus norvegicus [1]) does the source give for `Cc1cc(NC(=O)C(=O)c2cn(Cc3ccco3)c3ccccc23)sn1` here?
Answer: Its inhibition is “Active”.

Question: With `Cc1cc(Cn2cc(C(=O)C(=O)Nc3ccc(Br)cc3)c3ccccc32)on1` as the compound, how does the inhibition (Rattus norvegicus [1]) read?
Answer: Its inhibition is “Active”.

Question: For `Cc1cc(NC(=O)C(=O)c2cn(Cc3cccs3)c3ccccc23)sn1`, which inhibition (Rattus norvegicus [6]) is on record?
Answer: The inhibition was “Active”.

Question: For `COc1ccc(NC(=O)C(=O)c2cn(Cc3ccccc3C#N)c3ccccc23)cc1`, which inhibition (Rattus norvegicus [1]) is on record?
Answer: The inhibition was “Active”.

Question: With `N#Cc1ccc(Cn2cc(C(=O)C(=O)Nc3ccc(I)cc3)c3ccccc32)cc1` as the compound, how does the inhibition (Rattus norvegicus [1]) read?
Answer: Its inhibition is “Active”.

Question: For `Cc1cc(NC(=O)C(=O)c2cn(Cc3ccno3)c3ccccc23)sn1`, which inhibition (Rattus norvegicus [1]) is on record?
Answer: The inhibition was “Active”.

Question: For `Cc1cc(Cn2cc(C(=O)C(=O)Nc3ccc4ncccc4c3)c3ccccc32)on1`, which inhibition (Rattus norvegicus [1]) is on record?
Answer: Its inhibition is “Active”.

Question: Which Activity [7] does the source give for `O=C(Nc1ccc2ncccc2c1)C(=O)c1cn(Cc2ccsc2)c2ccccc12` here?
Answer: Its Activity is “Non-Toxic”.

Question: What about the ILS (P388) of the same compound?
Answer: The ILS was “Dose-dependent effect”.

Question: For `Cc1cc(NC(=O)C(=O)c2cn(Cc3ccc(C#N)cc3)c3ccccc23)sn1`, which inhibition (Rattus norvegicus [1]) is on record?
Answer: The inhibition was “Active”.

Question: What about the Activity [7] of the same compound?
Answer: Its Activity is “Non-Toxic”.

Question: What about the ILS (P388) of the same compound?
Answer: The ILS was “Dose-dependent effect”.

Question: Which inhibition (Rattus norvegicus [6]) does the source give for `O=C(Nc1ccncc1)C(=O)c1cn(Cc2ccc(Cl)cc2)c2ccccc12` here?
Answer: Its inhibition is “Active”.

Question: Which inhibition (Rattus norvegicus [1]) does the source give for `CCc1cc(Cn2cc(C(=O)C(=O)Nc3cc(C)ns3)c3ccccc32)on1` here?
Answer: Its inhibition is “Active”.

Question: For `O=C(Nc1ccc2ncccc2c1)C(=O)c1cn(Cc2cscn2)c2ccccc12`, which inhibition (Rattus norvegicus [1]) is on record?
Answer: The inhibition was “Active”.

Question: For `N#Cc1ccc(Cn2cc(C(=O)C(=O)Nc3ccc4ncccc4c3)c3ccccc32)cc1`, which inhibition (Rattus norvegicus [1]) is on record?
Answer: Its inhibition is “Active”.
